{"source": "patent US10011555B2", "about": "“Methods of treating Parkinson's disease” (University of Macau, priority 2013, dated 2018)", "key": {"[1]": {"test_system": "primary cerebellar granule neurons (CGNs)", "test": "MPP+-induced primary CGNs damage, cell viability by MTT", "assay_type": "cell-based, Sprague-Dawley rats", "conditions": "pre-treated 6 μM to 50 μM for 2 hours, then 150 μM MPP+ for 36 hours", "method": "Primary cerebellar granule neurons (CGNs) were prepared from 8 days old Sprague-Dawley rats, as described in a previous publication (Du, Bales et al. 1997). CGNs cultured in vitro for 7 days were pre-treated with serial concentrations of compounds 1-5 from 6 μM to 50 μM respectively for 2 hours, vehicle group was incubated with 0.1% DMSO. The cells were then exposed to 150 μM MPP^+ for 36 hours. For assessment of the cell viability, 15 μl of 5 mg/ml MTT solution was added to each well containing cell in 100 μl of medium, and the plates were incubated for 4 hours in a humidified incubator at 37° C. After incubation, 100 μl of absolute DMSO was added and incubated for 10 min. Absorbance at 570 nm of each well was measured with a microplate reader."}, "[2]": {"test_system": "primary cerebellar granule neurons (CGNs)", "test": "Synergistic neuroprotective effect of compound 1 and chrysin on MPP+-induced primary CGNs damage", "assay_type": "cell-based, Sprague-Dawley rats", "conditions": "25 and 50 μM of compound 1, p<0.05", "method": "Primary cerebellar granule neurons (CGNs) were prepared from 8 days old Sprague-Dawley rats as described (Zhang et al., 2012). […] The cell viability was estimated similarly as in Example 5.\nCGNs were also co-treated with compound 1 and chrysin to explore the pharmacological interaction between two compounds."}, "[3]": {"test_system": "TH-positive dopaminergic neurons in the SNpc", "test": "TH immunohistochemistry of SNpc in MPTP-injected mice", "assay_type": "in vivo, C57BL/6J mice", "method": "Adult male C57BL/6J mice (8-10 weeks of age, 18-22 g) were used in this study. The animals were maintained in 12/12 h light/dark cycle and allowed access to food and water ad libitum. They were allowed to acclimate for 7 days before treatment. […] Then the mice were injected intraperitoneally (i.p.) with 20 mg/kg MPTP hydrochloride (Sigma Aldrich, St. Louis, Mo.), at 2 h internal for total 4 injections. Normal control group were received saline (0.1 mL/10 g) by i.p. One hour prior each MPTP injection, compound 1 (5, 10 and 20 mg/kg), rasagiline (1 mg/kg) and equal volume of vehicle (olive oil, 0.1 mL/10 g) were administrated by i.g. Then, compound 1, rasagiline or vehicle was given by i.g. once per day for total 7 days (day 1-7). Each of six groups was comprised of 10 mice. Mice were sacrificed for tissue preparation on the day 9 as described in FIG. 6. Mice in each group were anesthetized and perfused intracardially with 0.9% sodium chloride containing heparin, and then fixed with 4% paraformaldehyde (PFA). […] The results were analyzed by counting the numbers of TH-positive cells at ×10 magnifications on a stereomicroscope (BX51, Olympus Corp. Japan). TH-positive cells in 8 position-matched sections of each mouse were counted manually by operator who was blinded to the drug treatment. […]"}, "[4]": {"test_system": "zebrafish dopaminergic neurons", "test": "MPTP-induced dopaminergic neuron loss in zebrafish, whole-mount TH immunostaining", "assay_type": "in vivo", "conditions": "co-treatment with 200 μM MPTP for 48 hours", "method": "Zebrafish embryo was dechorinated at 1 day post fertilization (dpf) and was cultured under co-treatment of 200 μM MPTP and various concentrations of compound 1 for 48 hours. Afterwards, zebrafish was fixed in 4% paraformaldehyde in PBS for 5 hours, rinsed and stored at −20° C. in 100% EtOH. Whole-mount immunostaining was done by standard methods (Bitzur, Kam et al. 1994). Further, compound 1 can protect MPTP-induced dopaminergic neuron loss in zebrafish in a dose-dependent manner with Emax at the concentration of 5 μM as shown in FIG. 3B in which the results were expressed quantitatively as percentages of area of TH-positive cells in comparison to untreated control group."}, "MPTP-injected mice": {"test_system": "MPTP-injected mice", "test": "Behavioral testing (pole, rotarod, footprint) in MPTP-injected mice", "assay_type": "in vivo, C57BL/6J mice", "conditions": "5, 10 and 20 mg/kg i.g., 7 days, MPTP 20 mg/kg i.p. x4", "method": "Adult male C57BL/6J mice (8-10 weeks of age, 18-22 g) were used in this study. The animals were maintained in 12/12 h light/dark cycle and allowed access to food and water ad libitum. They were allowed to acclimate for 7 days before treatment. […] Then the mice were injected intraperitoneally (i.p.) with 20 mg/kg MPTP hydrochloride (Sigma Aldrich, St. Louis, Mo.), at 2 h internal for total 4 injections. Normal control group were received saline (0.1 mL/10 g) by i.p. One hour prior each MPTP injection, compound 1 (5, 10 and 20 mg/kg), rasagiline (1 mg/kg) and equal volume of vehicle (olive oil, 0.1 mL/10 g) were administrated by i.g. Then, compound 1, rasagiline or vehicle was given by i.g. once per day for total 7 days (day 1-7). Each of six groups was comprised of 10 mice. […] All the tests were done between 9 am and 2 pm under normal animal room lighting. The pole test was performed to detect impairment of limb movement. A table tennis ball (5 cm diameter) was equipped on the top of a vertical pole (55 cm length and 1 cm diameter). The pole was wrapped with a double layer of gauze to avoid slipping. The animal was placed head upward on the table tennis ball. […] The system logs the fall as the end of the experiment for that mouse, and the total time on the rotarod was recorded. […] The average retention time on the rod was calculated. […] Their footsteps were recorded on a white absorbing paper."}, "zebrafish larvae": {"test_system": "zebrafish larvae", "test": "MPTP-induced reduction of total distance traveled of zebrafish larvae", "assay_type": "in vivo", "conditions": "3 dpf larvae co-treated with 200 μM MPTP for 4 days", "method": "The 3 dpf zebrafish larvae were co-treated with 200 μM MPTP and various concentrations of compound 1 for 4 days. At 7 dpf, the total distance the larvae traveled was recorded using a 96-well plate (with 1 fish/well and 12 larvae per group) filled with 200 μl embryo medium. Larvae were allowed to accommodate in the system for an hour before data acquisition. The swimming pattern of each larva was recorded for 10 min in 3 times, with each record session separated by 10 min. The total distance traveled was estimated as the distance (in mm) that the larva had moved during one session (10 min)."}, "PC12 cells": {"test_system": "PC12 cells", "test": "6-OHDA-induced PC12 cell damage and cytotoxicity on PC12 cells, cell viability by MTT", "assay_type": "cell-based, Rat", "method": "Rat pheochromocytoma cells (PC12) cells were seeded in c100 cm dishes at a density of 1.5˜2×10^6 cells/dish. After culturing in a medium with a low serum level (F-12K medium with 0.5% FBS) for 24 hours, the cells were pretreated with serial concentrations of compound 1 from 6 μM to 50 μM for 12 hours. The cells were then exposed to 1 mM 6-OHDA for 2 hours. Cell viability of cells was assessed similarly as described in Example 5."}}, "data": [{"compound": "Cc1ccc(O)c(C(CCC(=O)O)C(C)C)c1", "note": "(racemic) [Compound 5, 4-(2-hydroxy-5-methylphenyl)-5-methylhexanoic acid]", "values": [{"measurement": "concentration of Emax of neuroprotective effect on MPP+-induced primary SD rat CGNs damage", "setting": "[1]", "result": 50, "unit": "µM"}]}, {"compound": "Cc1ccc(O)c([C@H](CCC(=O)O)C(C)C)c1", "note": "[Compound 1, (R)-4-(2-hydroxy-5-methylphenyl)-5-methylhexanoic acid]", "values": [{"measurement": "cell viability vs MPP+ alone", "setting": "[2]", "result": "significantly enhanced"}, {"measurement": "concentration of Emax of neuroprotective effect on MPP+-induced primary SD rat CGNs damage", "setting": "[1]", "result": 50, "unit": "µM"}, {"measurement": "effect on MPTP-induced TH-positive cell body loss in SNpc", "setting": "[3]; compound 1 5, 10 and 20 mg/kg i.g., pre- and post-treatment, 7 days", "result": "significantly reduced the MPTP-induced TH-positive cell body loss in a dose-dependent manner"}, {"measurement": "effect on MPTP-induced DA neuron injury", "setting": "[4]", "result": "attenuated MPTP-induced DA neuron injury in a dose-dependent manner"}, {"measurement": "concentration of Emax of protection against MPTP-induced dopaminergic neuron loss in zebrafish", "setting": "[4]; area of TH-positive cells", "result": 5, "unit": "µM"}, {"measurement": "effect on movement abnormalities (pole test, foot printing duration and stride length, rotarod)", "setting": "MPTP-injected mice", "result": "largely corrected the movement abnormalities in a dose-dependent manner"}, {"measurement": "effect on MPTP-induced reduction of total distance traveled", "setting": "zebrafish larvae", "result": "attenuated MPTP-induced reduction of total distance traveled of the larvae in a dose dependent manner"}, {"measurement": "concentration of maximum efficacy (Emax) of neuroprotective effect on 6-OHDA-induced PC12 cell damage", "setting": "PC12 cells; 1 mM 6-OHDA for 2 hours", "result": 50, "unit": "µM"}, {"measurement": "cytotoxicity on PC12 cells", "setting": "PC12 cells; all tested concentrations (6 μM to 50 μM), 12 hours", "result": "did not exhibit any cytotoxicity"}, {"measurement": "effect on 6-OHDA cytotoxicity to PC12 cells", "setting": "PC12 cells; pretreated 6 μM to 50 μM for 12 hours, then 1 mM 6-OHDA for 2 hours", "result": "could alleviate the cytotoxic effect in a dose-dependent manner"}]}, {"compound": "CC(C)[C@H](CCC(=O)O)C1=CC(C)(O)CCC1=O", "note": "(stereo partly drawn) [Compound 2, (4S)-4-(3-hydroxy-3-methyl-6-oxocyclohex-1-enyl)-5-methylhexanoic acid]", "values": [{"measurement": "concentration of Emax of neuroprotective effect on MPP+-induced primary SD rat CGNs damage", "setting": "[1]", "result": 50, "unit": "µM"}]}, {"compound": "CC(C)[C@@H](CCC(=O)O)C1=CC(C)(O)CCC1=O", "note": "(stereo partly drawn) [Compound 3, (4R)-4-(3-hydroxy-3-methyl-6-oxocyclohex-1-enyl)-5-methylhexanoic acid]", "values": [{"measurement": "concentration of Emax of neuroprotective effect on MPP+-induced primary SD rat CGNs damage", "setting": "[1]", "result": 25, "unit": "µM"}]}, {"compound": "Cc1ccc(O)c([C@@H](CCC(=O)O)C(C)C)c1", "note": "[Compound 4, (S)-4-(2-hydroxy-5-methylphenyl)-5-methylhexanoic acid]", "values": [{"measurement": "concentration of Emax of neuroprotective effect on MPP+-induced primary SD rat CGNs damage", "setting": "[1]", "result": 12, "unit": "µM"}]}, {"compound": "O=c1cc(-c2ccccc2)oc2cc(O)c(O)c(O)c12", "note": "[baicalein, reference compound]", "values": [{"measurement": "protection of PC12 cells against 6-OHDA-induced neuronal damage", "setting": "PC12 cells; positive control at 100 μM", "result": "obviously protected"}]}, {"compound": "C#CCN[C@@H]1CCc2ccccc21", "note": "[rasagiline, reference compound]", "values": [{"measurement": "effect on MPTP-induced TH-positive cell body loss in SNpc", "setting": "[3]; rasagiline 1 mg/kg i.g., same schedule", "result": "prevented against the MPTP-induced TH-positive cell body loss"}]}]}
